In publication PMC9542285, “Novel amides of mycophenolic acid and some heterocyclic derivatives as immunosuppressive agents” (Journal of Enzyme Inhibition and Medicinal Chemistry, 2022):
Like-named read-outs stand apart in the source and are kept apart here.

Assays:
[1] = tested on: PBMCs; assay: In vitro cytotoxicity assay with XTT dye, PBMCs; type: cell-based, human; conditions: Homo sapiens, PBMC, 72 h incubation then 24 h XTT, read-out: IC50 PBMCs (XTT test)
Experimental: (§1) Figure 2. Representative dose-response curve to determine the IC50 of MPA and A2. […] Next, plates were incubated for 24 h with XTT reagent. The conversion of water-soluble yellow tetrazolium XTT salt into orange formazan was monitored by measuring the optical density at 450 nm on microplate spectrophotometer. For XTT assay at least three experiments were performed and values are presented as mean ± SD.
(§2) The cytotoxic effect of derivatives of MPA was measured using in vitro 2,3-bis(2-methoxy-4-nitro-5-sulfophenyl)-2H-tetrazolium-5-carboxanilide (XTT)-based assay (Roche, Basel, Swiss). PBMCs suspended in complete X–VIVO20 medium and T-Jurkat cells suspended in complete RPMI-1640 medium were added on a 96-well plate at a concentration of 5 × 10^5 cells/50 µL/well. […] As a background control we used medium without cells, as a positive control we used cells untreated with compounds. After 48 h for T-Jurkat cells and 72 h for PBMCs of incubation in a humidified atmosphere with 5% CO2 at 37 °C, 50 µL of XTT reagent (freshly prepared according to the manufacturer’s procedure) was added to all samples. Plates were incubated for 24 h (5% CO2 at 37 °C). The conversion of water-soluble yellow tetrazolium XTT salt into orange formazan was monitored by measuring the optical density (OD) at 450 nm on Agilent BioTek Epoch Microplate Spectrophotometer (Agilent Technologies, Santa Clara, CA), with a background wavelength at 690 nm. […] Each sample was performed in triplicates.

[2] = tested on: PBMCs; conditions: read-out: EC50 PBMCs (VPD450 proliferation); PBMCs stimulated with anti-CD3/anti-CD28 beads, 72 h
Experimental: (§3) Cell proliferation was analysed using flow cytometry. The results are expressed as the mean ± SD.
(§4) PBMCs and T-Jurkat cells were washed twice with warm PBS (37 °C), suspended in fresh PBS at a final concentration of 10–30 × 10^6 cells/mL and labelled with 1 µL of VPD450 (BD Biosciences, Franklin Lakes, NJ) at 37 °C for 15 min. Each 5 min cells were vortexed to provide uniform staining[42]^,[43]. Subsequently, cells were washed with PBS and then with complete medium (X-VIVO20 for PBMCs and RPMI-1640 for T-Jurkat cells). After this step, cells were suspended in fresh complete medium, seeded on 96-well plates (1 × 10^6 cells/well). PBMCs were additionally stimulated with magnetic beads coated with anti-CD3 and anti-CD28 antibodies (Invitrogen, Carlsbad, CA) in 1:0.5 cell:bead ratio. Of 100 µL of examined derivatives of MPA were added to experimental wells to receive final concentrations: 100; 10; 1; 0.1; 0.01 µM. In parallel, stained and not stimulated cells, as well as stained and stimulated cells, were seeded in the same concentration as controls. After 48 h for T-Jurkat and 72 h for PBMCs, cells were analysed with flow cytometer LSRFortessa (BD Biosciences, Franklin Lakes, NJ) and Kaluza C Flow Cytometry Analysis Software (Beckman Coulter, Brea, CA). […] Cell viability was determined at the highest concentration of the tested compound. For this purpose, TC20 cell counter (Biorad) was used with trypan blue exclusion.

[3] = tested on: T-Jurkat cell line; assay: In vitro cytotoxicity assay with XTT dye, T-Jurkat; type: cell-based, human; conditions: Homo sapiens, 48 h incubation then 24 h XTT, read-out: IC50 T-Jurkat (XTT test)
Experimental: as §1, §2

[4] = tested on: PBMCs; assay: cells; conditions: Homo sapiens, PBMC, 72 h, read-out: EC50 PBMCs (VPD450 proliferation), PBMCs stimulated with anti-CD3/anti-CD28 beads, 72 h
Experimental: as §3, §4

[5] = tested on: PBMCs; assay: VPD450 proliferation of PBMCs with or without GMP (IMPDH mechanism test); type: cell-based, human; conditions: PBMCs, 72 h
Experimental: According to reported experiment, suppression of cell proliferation caused by IMPDH inhibitors in the presence of guanosine source, e.g. gunosine monophosphate (GMP) is reversible.
Figure 5. […] Cell proliferation was analysed using flow cytometry.
Cells proliferation was analyzed using flow cytometry.
(1 picture or pasted object on this page, not shown here)

[6] = tested on: T-Jurkat cells; assay: Dye-based proliferation assay VPD450 (flow cytometry), T-Jurkat; type: cell-based, human; conditions: Homo sapiens, 48 h
Experimental: Figure 4. […] Cell proliferation was analysed using flow cytometry.

- melting point: 175 to 177 °C
- EC50 [6]: 0.85 ± 0.004 µM
Structure (SMILES): COc1c(C)c2c(c(O)c1C/C=C(\C)CCC(=O)Nc1nc3ccccc3o1)C(=O)OC2 [A2, N-(benzo[d]oxazol-2-yl) mycophenolate]
- IC50 [1]: 15.923 ± 0.009 µM
- EC50 [2]: 5.601 ± 0.022 µM
- IC50 [3]: 1.326 ± 0.002 µM
- EC50 [4]: 5.6 µM
- Effect of GMP addition on proliferation ([5]; 50 µM GMP, MPA at 100, 10 and 1 µM, A2 at 100 and 10 µM): proliferation increases after the addition of GMP
- Mechanism of action (IMPDH inhibition, GMP reversal) ([5]; with or without 50 µM GMP): consistent with that of MPA
